Results as given in patent US4965365A, “Imidazole derivatives and a process for the preparation thereof” (Laboratorios Vinas, S.A., priority 1988, dated 1990).

What was measured:
ethanol induced ulcers = conditions: equimolecular doses
Protocol: (B) Necrotic agent model.
The activity of this compound vs cimetidine at equimolecular doses and a control group administered a vehicle was tested using the necrotic agent model, in this case ethanol, described by A. Robert et al. (Gastroenterology, 77: 433, 1979).

[1] = test system: histamine induced gastric acid secretion; conditions: 15 mg/kg, i.p., rat, intragastric pH
Protocol: (A) histamine induced gastric acid secretion model "in vivo" in the rat.
This activity was measured in Wistar rats of 240±20 g body weight. An endovenous perfusion of a histamine solution stimulated the gastric acid secretion, causing a drop in the intragastric pH. Thereafter, this compound was administered i.p. and the increase in gastric pH caused was evaluated.

| Compound | % inhibition of ulcers vs the control (ethanol induced ulcers; ethanol model) [%] | mm damaged (lesion index, mm of ulcer) (ethanol induced ulcers; mean ± standard error of the mean, control 91.4 ± 8.1, a: t test p< 0.05 vs control) [mm] | pH Recovery [1] [%] |
| --- | --- | --- | --- |
| CNC(=NC#N)NCCSCc1nc[nH]c1C [Cimetidine, cimetidine] | 30.3 | 63.7 ± 7.7 | – |
| CN=C(NC#N)NCCSCc1nc[nH]c1C.[Cl][Zn][Cl] [Zn(cimetidine)Cl2] | – | – | 65.5 |
